Source: patent US11708338B2, “Substituted phenyl sulfonyl phenyl triazole thiones and uses thereof” (Neuropore Therapies, Inc., priority 2017, dated 2023)

Test system: amyloid beta
Assay: Amyloid beta (6E10) immunostaining in brain of L41 APP transgenic mice
Assay type: in vivo, mouse
Conditions: 5 mg/kg daily i.p.
Protocol: As described earlier, Line 41 transgenic mice express high levels of the mutant hAPP751 and develop mature plaques in the cortex, hippocampus, thalamus and olfactory region of mouse brain. The effects of Compound 1 on Amyloid beta plaque formation were assessed in both L41 APP transgenic and non-transgenic mice in a 1 month administration study. After 30 days, the mice were sacrificed, and immunofluorescence (IF) detection of amyloid beta were assessed in the harvested brain tissues.
The harvested brain tissues were drop fixed using 4% PFA and sectioned on a vibratome, and representative sections containing the neuropil of cortex, hippocampus and striatum were assessed for amyloid beta with standard IHC staining.
On approximately day 30, all subjects were euthanized within 2 hours of the last treatment and brain and other samples were collected. Brains were removed and divided sagitally. […]
Prepared slides were imaged at 40× using a high-resolution Hamamatsu Nanozoomer™ scanner located in the Microscopy Core in the UCSD Department of Neurosciences. Digital images were then transferred to Neuropore and analyzed using the Halo® imaging software package (Indica Labs, Corrales, N. Mex.). […] Images were evaluated for specimen and imaging problems and any issues were noted prior to unblinding of samples and statistical analyses.

O=S(=O)(c1ccc(-n2cn[nH]c2=S)cc1)c1ccc(Cl)c(C(F)(F)F)c1 [Compound 1, 4-(4-((4-chloro-3-(trifluoromethyl)phenyl)sulfonyl)phenyl)-2,4-dihydro-3H-1,2,4-triazole-3-thione]
amyloid beta level vs vehicle-treated Line 41 mice, quantification: reduces the amyloid beta level in a statistically significant manner
